Experimental data as given in patent publication US11292787B2, “Five-membered-fused-six-membered aza-aromatic ring compound, preparation method thereof, pharmaceutical composition and application thereof” (XIAMEN UNIVERSITY, priority 2017, dated 2022).

Biological target: T1, K-Ras protein (Homo sapiens, UniProt P01116, G12V)
T1 construct: in SW620 cells, compound I-a-1 can effectively enhance the degradation of endogenous K-RAS-G12V proteins; endogenous in cells; host or cells: SW-620
Test: K-Ras protein degradation rate by Western blot in SW-620 cells
Assay type: cell-based
Settings: 10 μM, SW-620 cells, 24 h, Western blot, relative to DMSO control; read-out: Degradation rate of compounds at 10 μM on Ras protein (%)
Description: Inhibitory activity of compounds on K-RAS was evaluated by the degradation rate of protein level of administration group relative to control group (Cell Rep 2014, 7, 871-882).
The specific method was as follows:
1. Cell plating: SW-620 cells in logarithmic growth phase were inoculated into a 24-well plate at 2×10^4/well, and cultured in a 37° C., 5% CO2 incubator.
2. Administering drug to cells: after 24 h of culture, various drug stocks […]; the original solution in the 24-well plate was discarded, to which was added the obtained drug solution, with the DMSO group as the blank control; after the drug solution was added, the 24-well plate was transferred to the 37° C. CO2 incubator to continue the culture.
3. Detection of K-Ras protein level: after 24 h of administration and culture, the liquid in the well was discarded, the cells were routinely collected, and rinsed twice with 1×PBS, a cell lysate was added to extract the total cellular protein, and the protein concentration was determined by BCA method. 30 μg of the protein sample was taken for SDS-polyacrylamide gel electrophoretic transmembrane, the membrane was blocked sequentially, incubated with K-Ras antibody (1:1000) and internal reference antibody β-actin (1:2000) respectively overnight at 4° C., rinsed with TBST for 5 min×3 times, then incubated with the addition of the corresponding horseradish peroxidase-labeled secondary antibody (1:5000) for 1-2 h, and rinsed with TBST for 5 min×3 times. Finally, chemiluminescence image was acquired using Image Lab software.
4. Calculation of single-point K-Ras protein degradation rate: quantitative and calibration analysis of K-Ras and β-actin were conducted using Image-Lab software, and then the intracellular K-Ras degradation rate was calculated according to the following formula: single-point K-Ras protein degradation rate (%)=(control group−administration group)/control group×100%. The drug with degradation rate ≥20% was selected for soft agar experiment.

T1 sequence (P01116 1-188 isoform P01116-2 G12V): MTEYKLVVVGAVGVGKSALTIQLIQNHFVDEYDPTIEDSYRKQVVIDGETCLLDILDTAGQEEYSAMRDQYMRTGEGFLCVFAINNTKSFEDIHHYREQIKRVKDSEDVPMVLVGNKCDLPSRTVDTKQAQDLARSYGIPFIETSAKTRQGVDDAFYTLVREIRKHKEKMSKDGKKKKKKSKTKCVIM

Row | percent K-Ras protein degradation (single point) at 10 µM | SMILES
1 | 20% | O=C(NCc1cccc(C(F)(F)F)c1)c1csc(-c2n[nH]c3ccccc23)c1 [I-a-8]
2 | 30% | O=C(NCc1cc(C(F)(F)F)ccc1F)c1csc(-c2n[nH]c3ccccc23)c1 [I-a-9]
3 | 30% | O=C(Nc1ccccc1)c1csc(-c2n[nH]c3ccccc23)c1 [I-a-11]
4 | 50% | O=C(NCc1c(F)cccc1Cl)c1c[nH]c(-c2n[nH]c3ccccc23)c1 [I-b-1]
5 | 56% | O=C(Nc1ccccc1)c1c[nH]c(-c2n[nH]c3ccccc23)c1 [I-b-2]
6 | 11% | O=C(NCc1c(F)cccc1Cl)c1coc(-c2n[nH]c3ccccc23)c1 [I-c-1]
7 | 2% | O=C(NCc1c(F)cccc1Cl)c1cccc(-c2n[nH]c3ccccc23)c1 [I-d-1]
8 | 12% | O=C(Nc1ccccc1)c1ccc(-c2n[nH]c3ccccc23)cc1 [I-e-2]
9 | 20% | O=C(NCc1c(F)cccc1Cl)c1ccc(-c2n[nH]c3ccccc23)s1 [I-f-1]
10 | 25% | O=C(Nc1ccccc1)c1ccc(-c2n[nH]c3ccccc23)s1 [I-f-2]
11 | 30% | O=C(NCc1c(F)cccc1Cl)c1ccc(-c2n[nH]c3ccccc23)[nH]1 [I-g-1]
12 | 52% | O=C(NCc1c(F)cccc1Cl)c1coc(-c2c[nH]c3ncccc23)c1 [II-b-1]
13 | 50% | O=C(Nc1ccccc1)c1coc(-c2c[nH]c3ncccc23)c1 [II-b-2]
14 | 15% | O=C(NCc1c(F)cccc1Cl)c1ccc(-c2c[nH]c3ncccc23)s1 [II-e-1]
15 | 9% | O=C(Nc1ccccc1)c1csc(-c2n[nH]c3ncccc23)c1 [III-a-2]
16 | 60% | O=C(NCc1cccc(C(F)(F)F)c1)c1csc(-c2n[nH]c3ncccc23)c1 [III-a-3]
17 | 60% | O=C(NCc1cc(C(F)(F)F)ccc1F)c1csc(-c2n[nH]c3ncccc23)c1 [III-a-4]
18 | 35% | O=C(NCc1c(F)cccc1Cl)c1coc(-c2n[nH]c3ncccc23)c1 [III-b-1]
19 | 16% | O=C(Nc1c(F)cccc1Cl)c1cccc(-c2n[nH]c3ncccc23)c1 [III-c-3]
20 | 18% | O=C(Nc1ccccc1)c1ccc(-c2n[nH]c3ncccc23)cc1 [III-d-2]
21 | 27% | O=C(Nc1c(F)cccc1Cl)c1ccc(-c2n[nH]c3ncccc23)cc1 [III-d-3]
22 | 40% | O=C(NCc1c(F)cccc1Cl)c1ccc(-c2n[nH]c3ncccc23)s1 [III-e-1]

Row | percent K-Ras protein degradation (single point) at 10 µM | SMILES
23 | 40% | O=C(Nc1ccccc1)c1ccc(-c2n[nH]c3ncccc23)s1 [III-e-2]
24 | 60% | O=C(NCc1c(F)cccc1Cl)c1c[nH]c(-c2n[nH]c3ncccc23)c1 [III-f-1]
25 | 6% | O=C(NCc1c(F)cccc1F)c1c[nH]c(-c2n[nH]c3ncccc23)c1 [III-f-3]
26 | 19% | O=C(NCc1ccc(Cl)c(Cl)c1)c1c[nH]c(-c2n[nH]c3ncccc23)c1 [III-f-4]
27 | 15% | O=C(NCc1ccc(Cl)cc1)c1c[nH]c(-c2n[nH]c3ncccc23)c1 [III-f-6]
28 | 18% | O=C(Nc1ccccc1)c1c[nH]c(-c2n[nH]c3ncccc23)c1 [III-f-10]
29 | 13% | O=C(Nc1cccc(C(F)(F)F)c1)c1c[nH]c(-c2n[nH]c3ncccc23)c1 [III-f-11]
30 | 16% | O=C(Nc1cccc(F)c1)c1c[nH]c(-c2n[nH]c3ncccc23)c1 [III-f-13]
31 | 14% | CC(C)Oc1ccc(NC(=O)c2c[nH]c(-c3n[nH]c4ncccc34)c2)cc1 [III-f-15]
32 | 15% | Cc1ccc(NC(=O)c2c[nH]c(-c3n[nH]c4ncccc34)c2)cc1 [III-f-16]
33 | 19% | COc1ccc(NC(=O)c2c[nH]c(-c3n[nH]c4ncccc34)c2)cc1 [III-f-17]
34 | 15% | O=C(Nc1ccc(OC(F)(F)F)cc1)c1c[nH]c(-c2n[nH]c3ncccc23)c1 [III-f-18]
35 | 13% | O=C(NCCc1ccccc1)c1c[nH]c(-c2n[nH]c3ncccc23)c1 [III-f-24]
36 | 14% | O=C(NC1CCCCC1)c1c[nH]c(-c2n[nH]c3ncccc23)c1 [III-f-27]
37 | 45% | N#Cc1ccc(CNC(=O)c2c[nH]c(-c3n[nH]c4ncccc34)c2)cc1 [III-f-31]
38 | 60% | N#Cc1cccc(CNC(=O)c2c[nH]c(-c3n[nH]c4ncccc34)c2)c1 [III-f-32]
39 | 60% | O=C(NCc1ccc(C(F)(F)F)cc1)c1c[nH]c(-c2n[nH]c3ncccc23)c1 [III-f-34]
40 | 50% | O=C(NCc1ccccc1O)c1c[nH]c(-c2n[nH]c3ncccc23)c1 [III-f-35]
41 | 35% | O=C(NCc1ccccn1)c1c[nH]c(-c2n[nH]c3ncccc23)c1 [III-f-37]
42 | 50% | O=C(NCc1cccc(OC(F)(F)F)c1)c1c[nH]c(-c2n[nH]c3ncccc23)c1 [III-f-38]
43 | 60% | O=C(NCc1ccccc1OC(F)(F)F)c1c[nH]c(-c2n[nH]c3ncccc23)c1 [III-f-39]
44 | 30% | O=C(NCc1ccc(OC(F)(F)F)cc1)c1c[nH]c(-c2n[nH]c3ncccc23)c1 [III-f-40]

Row | percent K-Ras protein degradation (single point) at 10 µM | SMILES
45 | 60% | O=C(NCc1cccc(Br)c1)c1c[nH]c(-c2n[nH]c3ncccc23)c1 [III-f-41]
46 | 70% | O=C(NCc1ccccc1Br)c1c[nH]c(-c2n[nH]c3ncccc23)c1 [III-f-42]
47 | 40% | O=C(NCc1ccc(Br)cc1)c1c[nH]c(-c2n[nH]c3ncccc23)c1 [III-f-43]
48 | 70% | O=C(NCc1cccc(F)c1)c1c[nH]c(-c2n[nH]c3ncccc23)c1 [III-f-44]
49 | 50% | O=C(NCc1ccccc1F)c1c[nH]c(-c2n[nH]c3ncccc23)c1 [III-f-45]
50 | 60% | O=C(NCc1cccc(Cl)c1)c1c[nH]c(-c2n[nH]c3ncccc23)c1 [III-f-46]
51 | 50% | O=C(NCc1ccccc1Cl)c1c[nH]c(-c2n[nH]c3ncccc23)c1 [III-f-47]
52 | 60% | O=C(NCc1cccc([N+](=O)[O-])c1)c1c[nH]c(-c2n[nH]c3ncccc23)c1 [III-f-48]
53 | 50% | Nc1cccc(CNC(=O)c2c[nH]c(-c3n[nH]c4ncccc34)c2)c1 [III-f-49]
54 | 40% | Cc1cccc(CNC(=O)c2c[nH]c(-c3n[nH]c4ncccc34)c2)c1 [III-f-50]
55 | 70% | Cc1ccccc1CNC(=O)c1c[nH]c(-c2n[nH]c3ncccc23)c1 [III-f-51]
56 | 35% | Cc1ccc(CNC(=O)c2c[nH]c(-c3n[nH]c4ncccc34)c2)cc1 [III-f-52]
57 | 50% | COc1cccc(CNC(=O)c2c[nH]c(-c3n[nH]c4ncccc34)c2)c1 [III-f-53]
58 | 50% | COc1ccccc1CNC(=O)c1c[nH]c(-c2n[nH]c3ncccc23)c1 [III-f-54]
59 | 25% | COc1ccc(CNC(=O)c2c[nH]c(-c3n[nH]c4ncccc34)c2)cc1 [III-f-55]
60 | 70% | O=C(NCc1cc(F)ccc1F)c1c[nH]c(-c2n[nH]c3ncccc23)c1 [III-f-56]
61 | 70% | O=C(NCc1ccc(F)c(C(F)(F)F)c1)c1c[nH]c(-c2n[nH]c3ncccc23)c1 [III-f-57]
62 | 75% | O=C(NCc1cc(F)cc(C(F)(F)F)c1)c1c[nH]c(-c2n[nH]c3ncccc23)c1 [III-f-58]
63 | 60% | O=C(NCc1cc(C(F)(F)F)cc(C(F)(F)F)c1)c1c[nH]c(-c2n[nH]c3ncccc23)c1 [III-f-59]
64 | 65% | O=C(NCc1cccc(C(F)(F)F)c1F)c1c[nH]c(-c2n[nH]c3ncccc23)c1 [III-f-60]
65 | 50% | O=C(NCc1ccc(Cl)c(C(F)(F)F)c1)c1c[nH]c(-c2n[nH]c3ncccc23)c1 [III-f-61]
66 | 70% | O=C(NCc1cc(C(F)(F)F)ccc1F)c1c[nH]c(-c2n[nH]c3ncccc23)c1 [III-f-62]
